Reference: patent US20220175916A1, “METHODS AND COMPOSITIONS FOR TREATING CHRONIC EFFECTS OF RADIATION AND CHEMICAL EXPOSURE” (priority 2018, published 2022)

Test system: pancreatic cancer PANG-1 cell line
Test: Fluorescence microscopy study of etoposide-induced senescence and anti-AGE antibody staining
Type: cell-based
Conditions: 12.5 μM for 24 hours
Procedure: Cells from the pancreatic cancer PANG-1 cell line were treated with 12.5 μM etoposide, a chemotherapeutic agent, for 24 hours to induce senescence. Control cells were treated with dimethyl sulfoxide (DMSO) vehicle for 24 hours. The cells were then stained with a senescence β-galactosidase staining kit, an anti-AGE antibody conjugated to green fluorescent protein (GFP) or an anti-AGE antibody conjugated to GFP and 4′,6-diamidino-2-phenylindole (DAPI). GFP-stained cells appear green and DAPI-stained cells appear blue under fluorescence microscopy.
(§1) FIG. 2A illustrates the untreated cells after staining with the senescence β-galactosidase staining kit. FIG. 2B illustrates the untreated cells after staining with the anti-AGE antibody conjugated to GFP. FIG. 2C illustrates the untreated cells after staining with the anti-AGE antibody conjugated to GFP-DAPI. FIGS. 2B and 2C have been brightened to enhance contrast. The untreated cells appear relatively uniform in size and shape and are densely packed.
as §1, with “2D” for “2A”, “etoposide-treated” for “untreated”, “2E” for “2B”, “2F” for “2C”, “contrast.” for “contrast. The untreated cells appear relatively uniform in size and shape and are densely packed.”

COc1cc([C@@H]2c3cc4c(cc3[C@@H](O[C@@H]3O[C@@H]5CO[C@@H](C)O[C@H]5[C@H](O)[C@H]3O)[C@H]3COC(=O)[C@H]23)OCO4)cc(OC)c1O [etoposide]
Appearance of treated cells (senescence): irregular appearance, are larger in size and are loosely packed
